Our source for the IC50 values is patent US20250154162A1, “COMPOUND FOR REGULATING AND CONTROLLING 15-PGDH ACTIVITY AND PREPARATION METHOD THEREFOR” (SCINNOHUB PHARMACEUTICAL CO., LTD., priority 2022, published 2025).

The target in the experiment is 15-PGDH (Homo sapiens (Human), UniProt P15428). The experiment can be described thus: Detection of 15-PGDH enzyme activity. In kind it is biochemical. The settings on record: 15-PGDH enzyme inhibitory activity; substrates β-NAD and PGF2α. The text has this: The formula was shown below: Y=Bottom+(Top-Bottom)/(1+10∧((LogIC50−X)*HillSlope)), wherein X is a log value of a concentration of the compound, and Y is inhibition rate %.
Chain of 15-PGDH (P15428 whole entry): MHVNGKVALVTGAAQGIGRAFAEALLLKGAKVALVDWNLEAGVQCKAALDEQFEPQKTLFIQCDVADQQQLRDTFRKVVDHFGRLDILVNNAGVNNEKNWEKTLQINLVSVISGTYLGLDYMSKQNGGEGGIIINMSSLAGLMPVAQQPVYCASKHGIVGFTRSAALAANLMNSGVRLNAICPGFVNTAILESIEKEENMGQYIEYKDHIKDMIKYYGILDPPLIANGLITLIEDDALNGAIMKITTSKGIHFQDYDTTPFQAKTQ
Broadly, the IC50 is the concentration that inhibits the measured activity by half. A higher IC50 goes with weaker potency. Take `Cn1ncc2cc(-c3cnc4c(N)c(C(=O)N5CCCCC5)sc4n3)ccc21` [Example 18]: the IC50 lay in the range of 0.003 to 0.01 µM.

As to `Nc1c(C(=O)N2CCCCC2)sc2nc(-c3ccc4cccnc4c3)cnc12` [Example 39], the IC50 lay within 0.0005 to 0.003 µM.

With `Nc1c(C(=O)N2CCC(F)(F)C2)sc2nc(-c3ccccc3)cnc12` [Example 50], the IC50 lay within 0.05 to 1 µM.

On to `CN1CCN(C(=O)c2sc3nc(-c4ccccc4)cnc3c2N)CC1` [Example 52], for which the half-inhibitory concentration (IC50) was 0.05 to 1 µM.

With `Nc1c(C(=O)N2CCCCC2)sc2nc(-c3cnc4ccccc4c3)cnc12` [Example 31], the IC50 was 0.0005 to 0.003 µM.

In the case of `Nc1c(C(=O)N2CC[S+]([O-])CC2)sc2nc(-c3ccccc3)cnc12` [Example 58], the IC50 is greater than 5 µM.

Compound `Nc1c(C(=O)N2CCCCC2)sc2nc(-c3cnc4[nH]ncc4c3)cnc12` [Example 41] gave an IC50 of 0.003 to 0.01 µM.

The compound `Cn1cc(-c2cnc3c(N)c(C(=O)N4CCCCC4)sc3n2)ccc1=O` [Example 17] returned an IC50 of 0.0005 to 0.003 µM.

`Nc1c(C(=O)N2CCCCC2)sc2nc(-c3ccnc(C(F)(F)F)c3)cnc12` [Example 37] registered an IC50 of 0.003 to 0.01 µM.

In turn, `Nc1c(C(=O)N2CCC(F)CC2)sc2nc(-c3ccccc3)cnc12` [Example 3, (7-amino-3-phenylthieno[2,3-b]pyrazin-6-yl) (4-fluoropiperidin-1-yl) methanone] yielded an IC50 of 0.01 to 0.025 µM.

Turning to `CC1(C)CCN(C(=O)c2sc3nc(-c4ccccc4)cnc3c2N)CC1` [Example 56], the IC50 is 0.05 to 1 µM.

Take `Cn1cc(-c2cnc3c(N)c(C(=O)N4CCCCC4)sc3n2)cn1` [Example 48]: the IC50 lay in the range of 0.01 to 0.025 µM.

Consider `Nc1c(C(=O)N2CCCCC2)sc2nc(-c3ccc4c(c3)OCO4)cnc12` [Example 43], for which the IC50 lay within 0.003 to 0.01 µM.

Compound `Nc1c(C(=O)N2CCc3ccccc3C2)sc2nc(-c3ccccc3)cnc12` [Example 54] gave an IC50 of 0.05 to 1 µM.

As for `Nc1c(C(=O)N2CCC(F)(F)CC2)sc2nc(-c3ccccc3)cnc12` [Example 49], the IC50 lay in the range of 0.05 to 1 µM.

`Nc1c(C(=O)N2CCCCC2)sc2nc(-c3ccn[nH]3)cnc12` [Example 9] registered an IC50 of 0.003 to 0.01 µM.

The compound `Nc1c(C(=O)N2CCCCC2)sc2nc(-c3cccc4ccccc34)cnc12` [Example 61] displayed an IC50 of 0.003 to 0.01 µM.

For the compound `COc1ncc(-c2cnc3c(N)c(C(=O)N4CCCCC4)sc3n2)cn1` [Example 60], the IC50 is less than 0.0005 µM.

`Nc1cc(-c2cnc3c(N)c(C(=O)N4CCCCC4)sc3n2)ccn1` [Example 62] registered an IC50 of 0.0005 to 0.003 µM.

On to `Nc1c(C(=O)N2CCC3(CC2)CC3)sc2nc(-c3ccccc3)cnc12` [Example 57], for which the IC50 is 0.05 to 1 µM.

`Nc1c(C(=O)N2CCS(=O)(=O)CC2)sc2nc(-c3ccccc3)cnc12` [Example 53] displayed an IC50 of 1 to 5 µM.

`Nc1c(C(=O)N2CC3(COC3)C2)sc2nc(-c3ccccc3)cnc12` [Example 59] yielded a half-inhibitory concentration (IC50) greater than 5 µM.

The compound `Nc1c(C(=O)N2CCCCC2)sc2nc(-c3cnc4[nH]ccc4c3)cnc12` [Example 29] gave an IC50 of 0.0005 to 0.003 µM.

In the case of `Nc1c(C(=O)N2CCSCC2)sc2nc(-c3ccccc3)cnc12` [Example 16], the IC50 was 0.01 to 0.025 µM.

As for `Nc1c(C(=O)N2CCOCC2)sc2nc(-c3ccccc3)cnc12` [Example 51], the IC50 was 0.05 to 1 µM.

`Nc1c(C(=O)N2CCCCC2)sc2nc(-c3ccncc3)cnc12` [Example 27] yielded an IC50 of 0.0005 to 0.003 µM.

With `Nc1c(C(=O)N2CCCCC2)sc2nc(-c3ccc(N4CCOCC4)nc3)cnc12` [Example 19], the IC50 lay within 0.003 to 0.01 µM.

On to `Cn1ccc(-c2cnc3c(N)c(C(=O)N4CCCCC4)sc3n2)n1` [Example 8], for which the IC50 was in the range of 0.003 to 0.01 µM.

`N#Cc1ncc(-c2cnc3c(N)c(C(=O)N4CCCCC4)sc3n2)cn1` [Example 44] had an IC50 of 0.003 to 0.01 µM.

`Nc1c(C(=O)N2CCCCC2)sc2nc(-c3ccccc3)cnc12` [Example 1, (7-amino-3-phenylthieno[2,3-b]pyrazin-6-yl) (piperidin-1-yl) methanone] yielded an IC50 of 0.003 to 0.01 µM.

Take `Nc1c(C(=O)N2CCCCCC2)sc2nc(-c3ccccc3)cnc12` [Example 4]: the IC50 was in the range of 0.01 to 0.025 µM.
